Measured values as given in ChEMBL document CHEMBL4680222, “Sensitive fluorogenic substrates for sirtuin deacylase inhibitor discovery” (Eur J Med Chem, 2020).
*1 amine or outer side, *2 acyl side, *3 side chain or, on linkers, in order; H or OH if unused. Where a SMILES comes first, the peptide text is derived from it. The star is where a group is joined. AMC = Cc1cc(=O)oc2cc(N*)ccc12; Suc = O=C(CCC(=O)[*:2])[*:1]; Decanoyl = CCCCCCCCCC(=O)*

Experiments:
[1] = molecular target: NAD-dependent protein deacylase sirtuin-6 (Homo sapiens) (UniProt Q8N6T7); assay: Substrate activity at human N-terminal His-tagged SIRT6 (1 to 355 residues) expressed in Escherichia coli at 5 uM measured after 2 hrs in presence of NAD+ and trypsin by fluorescence assay
Chain of NAD-dependent protein deacylase sirtuin-6 (Homo sapiens) (Q8N6T7 whole entry, the tested form may be a part): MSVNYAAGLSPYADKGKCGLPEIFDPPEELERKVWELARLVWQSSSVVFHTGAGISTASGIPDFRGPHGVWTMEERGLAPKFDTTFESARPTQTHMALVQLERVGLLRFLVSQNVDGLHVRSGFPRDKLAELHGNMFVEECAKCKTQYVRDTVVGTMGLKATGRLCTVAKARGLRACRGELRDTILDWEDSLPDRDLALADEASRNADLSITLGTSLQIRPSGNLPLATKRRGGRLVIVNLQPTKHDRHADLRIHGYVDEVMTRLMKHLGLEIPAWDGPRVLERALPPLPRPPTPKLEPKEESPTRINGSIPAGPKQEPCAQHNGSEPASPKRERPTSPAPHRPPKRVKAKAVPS

[2] = molecular target: NAD-dependent protein deacylase sirtuin-5, mitochondrial (Homo sapiens) (UniProt Q9NXA8); assay: Substrate activity at human N-terminal His-tagged SIRT5 (34 to 302 residues) expressed in Escherichia coli at 5 uM measured after 2 hrs in presence of NAD+ and trypsin by fluorescence assay
Chain of NAD-dependent protein deacylase sirtuin-5, mitochondrial (Homo sapiens) (Q9NXA8 37-310 limits assumed): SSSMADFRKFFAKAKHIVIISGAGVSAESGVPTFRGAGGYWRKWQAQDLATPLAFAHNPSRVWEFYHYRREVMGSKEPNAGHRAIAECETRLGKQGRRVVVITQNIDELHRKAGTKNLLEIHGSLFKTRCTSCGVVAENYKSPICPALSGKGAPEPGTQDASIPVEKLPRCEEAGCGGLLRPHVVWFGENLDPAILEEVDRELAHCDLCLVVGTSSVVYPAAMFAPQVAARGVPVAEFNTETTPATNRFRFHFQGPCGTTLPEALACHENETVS

[3] = molecular target: T1, NAD-dependent protein deacetylase sirtuin-1 (Homo sapiens) (UniProt Q96EB6); assay: Substrate activity at human N-terminal His-tagged SIRT1 (183 to 664 residues) expressed in Escherichia coli at 0.5 uM measured after 2 hrs in presence of NAD+ and trypsin by fluorescence assay
T1 sequence (whole entry): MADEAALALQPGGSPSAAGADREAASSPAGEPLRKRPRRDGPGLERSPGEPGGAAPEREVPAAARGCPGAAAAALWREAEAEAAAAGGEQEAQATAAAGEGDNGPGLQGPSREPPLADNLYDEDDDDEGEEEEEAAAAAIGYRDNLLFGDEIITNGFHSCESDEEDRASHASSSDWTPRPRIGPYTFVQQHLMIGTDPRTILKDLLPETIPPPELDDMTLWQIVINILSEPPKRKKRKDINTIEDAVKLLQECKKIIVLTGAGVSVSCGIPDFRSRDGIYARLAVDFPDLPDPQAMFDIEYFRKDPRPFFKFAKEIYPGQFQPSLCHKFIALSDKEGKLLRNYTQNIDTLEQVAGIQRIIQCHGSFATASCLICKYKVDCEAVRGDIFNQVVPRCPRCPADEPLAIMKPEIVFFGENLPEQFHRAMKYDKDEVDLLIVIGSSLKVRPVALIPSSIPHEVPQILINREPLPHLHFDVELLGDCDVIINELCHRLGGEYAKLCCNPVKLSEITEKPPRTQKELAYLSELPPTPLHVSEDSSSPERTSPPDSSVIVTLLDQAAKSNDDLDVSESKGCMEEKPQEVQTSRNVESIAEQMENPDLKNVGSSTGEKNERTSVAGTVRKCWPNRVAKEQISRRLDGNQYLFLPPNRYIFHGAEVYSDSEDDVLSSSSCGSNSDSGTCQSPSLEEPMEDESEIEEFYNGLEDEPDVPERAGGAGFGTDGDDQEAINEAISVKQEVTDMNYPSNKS

[4] = molecular target: NAD-dependent protein deacylase sirtuin-5, mitochondrial (Homo sapiens) (UniProt Q9NXA8); assay: Substrate activity at human N-terminal His-tagged SIRT5 (34 to 302 residues) expressed in Escherichia coli at 50 uM measured after 2 hrs in presence of NAD+ and trypsin by fluorescence assay
[5] = molecular target: T2, NAD-dependent protein deacetylase sirtuin-2 (Homo sapiens) (UniProt Q8IXJ6); assay: Substrate activity at human N-terminal His-tagged SIRT2 (56 to 356 residues) expressed in Escherichia coli at 5 uM measured after 2 hrs in presence of NAD+ and trypsin by fluorescence assay
T2 sequence (whole entry): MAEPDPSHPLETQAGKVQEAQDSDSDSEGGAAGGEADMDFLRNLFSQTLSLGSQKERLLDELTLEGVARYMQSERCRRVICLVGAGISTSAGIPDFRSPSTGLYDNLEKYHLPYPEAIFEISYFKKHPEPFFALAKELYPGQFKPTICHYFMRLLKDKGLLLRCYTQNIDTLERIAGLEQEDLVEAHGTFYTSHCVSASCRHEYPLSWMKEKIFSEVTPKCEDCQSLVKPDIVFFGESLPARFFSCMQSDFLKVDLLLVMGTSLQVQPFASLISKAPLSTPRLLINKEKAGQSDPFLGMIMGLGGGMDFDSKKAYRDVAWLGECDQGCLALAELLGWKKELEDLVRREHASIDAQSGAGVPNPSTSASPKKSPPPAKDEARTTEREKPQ

[6] = molecular target: T2, NAD-dependent protein deacetylase sirtuin-2 (Homo sapiens); assay: Substrate activity at human N-terminal His-tagged SIRT2 (56 to 356 residues) expressed in Escherichia coli at 50 uM measured after 2 hrs in presence of NAD+ and trypsin by fluorescence assay
[7] = molecular target: NAD-dependent protein deacylase sirtuin-6 (Homo sapiens) (UniProt Q8N6T7); assay: Substrate activity at human N-terminal His-tagged SIRT6 (1 to 355 residues) expressed in Escherichia coli at 50 uM measured after 2 hrs in presence of NAD+ and trypsin by fluorescence assay
[8] = molecular target: T3, NAD-dependent protein deacetylase sirtuin-7 (Homo sapiens) (UniProt Q9NRC8); assay: Substrate activity at human N-terminal His-tagged SIRT7 (68 to 354 residues) expressed in Escherichia coli at 0.5 uM measured after 2 hrs in presence of NAD+ and trypsin by fluorescence assay
T3 sequence (whole entry): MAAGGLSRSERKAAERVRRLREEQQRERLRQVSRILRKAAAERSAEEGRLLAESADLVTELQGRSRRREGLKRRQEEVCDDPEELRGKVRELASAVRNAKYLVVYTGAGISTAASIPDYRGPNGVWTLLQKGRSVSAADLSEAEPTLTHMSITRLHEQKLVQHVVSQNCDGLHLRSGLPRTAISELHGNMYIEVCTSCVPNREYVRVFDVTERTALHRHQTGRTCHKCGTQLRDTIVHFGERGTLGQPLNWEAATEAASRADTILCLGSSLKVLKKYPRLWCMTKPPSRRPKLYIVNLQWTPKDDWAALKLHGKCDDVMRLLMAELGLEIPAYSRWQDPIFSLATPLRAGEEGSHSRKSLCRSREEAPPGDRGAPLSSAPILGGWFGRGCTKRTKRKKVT

[9] = molecular target: NAD-dependent protein deacylase sirtuin-6 (Homo sapiens) (UniProt Q8N6T7); assay: Substrate activity at human N-terminal His-tagged SIRT6 (1 to 355 residues) expressed in Escherichia coli at 0.5 uM measured after 2 hrs in presence of NAD+ and trypsin by fluorescence assay
[10] = molecular target: T2, NAD-dependent protein deacetylase sirtuin-2 (Homo sapiens); assay: Substrate activity at human N-terminal His-tagged SIRT2 (56 to 356 residues) expressed in Escherichia coli at 0.5 uM measured after 2 hrs in presence of NAD+ and trypsin by fluorescence assay
[11] = molecular target: T3, NAD-dependent protein deacetylase sirtuin-7 (Homo sapiens); assay: Substrate activity at human N-terminal His-tagged SIRT7 (68 to 354 residues) expressed in Escherichia coli at 5 uM measured after 2 hrs in presence of NAD+ and trypsin by fluorescence assay
[12] = molecular target: NAD-dependent protein deacylase sirtuin-5, mitochondrial (Homo sapiens) (UniProt Q9NXA8); assay: Substrate activity at human N-terminal His-tagged SIRT5 (34 to 302 residues) expressed in Escherichia coli at 0.5 uM measured after 2 hrs in presence of NAD+ and trypsin by fluorescence assay
[13] = molecular target: T4, NAD-dependent protein deacetylase sirtuin-3, mitochondrial (Homo sapiens) (UniProt Q9NTG7); assay: Substrate activity at human N-terminal His-tagged SIRT3 (122 to 391 residues) expressed in Escherichia coli at 5 uM measured after 2 hrs in presence of NAD+ and trypsin by fluorescence assay
T4 sequence (whole entry): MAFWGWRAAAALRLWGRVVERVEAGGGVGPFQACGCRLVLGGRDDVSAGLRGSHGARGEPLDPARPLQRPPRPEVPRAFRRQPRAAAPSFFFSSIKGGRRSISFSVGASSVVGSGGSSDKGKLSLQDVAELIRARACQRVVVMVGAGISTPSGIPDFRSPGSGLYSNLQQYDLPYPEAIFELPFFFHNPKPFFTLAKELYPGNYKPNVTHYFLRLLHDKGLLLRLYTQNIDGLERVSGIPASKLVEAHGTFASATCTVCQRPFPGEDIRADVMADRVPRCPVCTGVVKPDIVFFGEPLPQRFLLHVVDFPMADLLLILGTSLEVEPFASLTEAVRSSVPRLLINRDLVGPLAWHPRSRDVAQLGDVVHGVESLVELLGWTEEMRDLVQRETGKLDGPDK

[14] = molecular target: T1, NAD-dependent protein deacetylase sirtuin-1 (Homo sapiens); assay: Substrate activity at human N-terminal His-tagged SIRT1 (183 to 664 residues) expressed in Escherichia coli at 50 uM measured after 2 hrs in presence of NAD+ and trypsin by fluorescence assay
[15] = molecular target: T4, NAD-dependent protein deacetylase sirtuin-3, mitochondrial (Homo sapiens); assay: Substrate activity at human N-terminal His-tagged SIRT3 (122 to 391 residues) expressed in Escherichia coli at 0.5 uM measured after 2 hrs in presence of NAD+ and trypsin by fluorescence assay
[16] = molecular target: T3, NAD-dependent protein deacetylase sirtuin-7 (Homo sapiens); assay: Substrate activity at human N-terminal His-tagged SIRT7 (68 to 354 residues) expressed in Escherichia coli at 50 uM measured after 2 hrs in presence of NAD+ and trypsin by fluorescence assay
[17] = molecular target: T4, NAD-dependent protein deacetylase sirtuin-3, mitochondrial (Homo sapiens); assay: Substrate activity at human N-terminal His-tagged SIRT3 (122 to 391 residues) expressed in Escherichia coli at 50 uM measured after 2 hrs in presence of NAD+ and trypsin by fluorescence assay
[18] = molecular target: T1, NAD-dependent protein deacetylase sirtuin-1 (Homo sapiens); assay: Substrate activity at human N-terminal His-tagged SIRT1 (183 to 664 residues) expressed in Escherichia coli at 5 uM measured after 2 hrs in presence of NAD+ and trypsin by fluorescence assay

Row | Structure (SMILES) | Activity [1] [RFU] | Activity [2] [RFU] | Activity [3] [RFU] | Activity [4] [RFU] | Activity [5] [RFU] | Activity [6] [RFU] | Activity [7] [RFU] | Activity [8] [RFU] | Activity [9] [RFU] | Activity [10] [RFU] | Activity [11] [RFU] | Activity [12] [RFU] | Activity [13] [RFU] | Activity [14] [RFU] | Activity [15] [RFU] | Activity [16] [RFU] | Activity [17] [RFU] | Activity [18] [RFU]
1 | CC(=O)NCCCC[C@H](NC(=O)[C@H](CO)NC(=O)[C@H](Cc1ccccc1)NC(=O)[C@H](CC(=O)O)NC(C)=O)C(=O)Nc1ccc2c(C)cc(=O)oc2c1 (Ac-DFSK(Ac)-{AMC}) | 0.36 | 0.29 | 0.31 | 0.81 | 1.13 | 6.75 | 0.58 | 0.39 | 0.48 | 0.31 | 0.65 | 0.26 | 1.29 | 21.2 | 0.32 | 0.58 | 7.07 | 3.38
2 | CCCCCCCCCC(=O)NCCCC[C@H](NC(=O)[C@H](CCCNC(=N)N)NC(=O)[C@H](CC(C)C)NC(=O)[C@H](CC(=O)O)NC(C)=O)C(=O)Nc1ccc2c(C)cc(=O)oc2c1 (Ac-DLRK(Decanoyl)-{AMC}) | 0.62 | 0.36 | 0.26 | 1.54 | 1.03 | 2.6 | 1.5 | 0.34 | 0.51 | 0.26 | 0.3 | 0.24 | 0.51 | 2.28 | 0.4 | 1.5 | 1.79 | 0.89
3 | CC[C@H](C)[C@H](NC(C)=O)C(=O)N[C@@H](CCCNC(=N)N)C(=O)N[C@H](C(=O)N[C@@H](CCCCNC(=O)CCC(=O)O)C(=O)Nc1ccc2c(C)cc(=O)oc2c1)[C@@H](C)CC (Ac-IRIK(Suc)-{AMC}) | 0.44 | 0.82 | 0.21 | 2.63 | 0.33 | 1.03 | 1.89 | 0.29 | 0.4 | 0.21 | 0.34 | 0.32 | 0.64 | 2.05 | 0.49 | 1.89 | 2.47 | 0.55
4 | CCCCCCCCCC(=O)NCCCC[C@H](NC(=O)[C@H](CCC(N)=O)NC(=O)[C@@H](NC(=O)[C@H](CCCCN)NC(C)=O)C(C)C)C(=O)Nc1ccc2c(C)cc(=O)oc2c1 (Ac-KVQK(Decanoyl)-{AMC}) | 0.74 | 0.24 | 1.68 | 0.78 | 1.72 | 3.19 | 1.09 | 0.6 | 0.46 | 1.68 | 0.44 | 0.28 | 0.73 | 1.1 | 0.51 | 1.09 | 0.85 | 0.74
5 | CCCCCCCCCC(=O)NCCCC[C@H](NC(=O)[C@H](CCCCN)NC(=O)[C@@H]1CCCN1C(=O)[C@H](CC(N)=O)NC(C)=O)C(=O)Nc1ccc2c(C)cc(=O)oc2c1 (Ac-NPKK(Decanoyl)-{AMC}) | 0.42 | 0.34 | 0.29 | 1.99 | 1.18 | 5.3 | 1.32 | 0.29 | 0.39 | 0.29 | 0.49 | 0.31 | 0.79 | 2.87 | 0.51 | 1.32 | 3.19 | 0.76
6 | CC(=O)NCCCC[C@H](NC(=O)[C@H](CCCNC(=N)N)NC(=O)[C@H](CO)NC(=O)[C@H](CC(N)=O)NC(C)=O)C(=O)Nc1ccc2c(C)cc(=O)oc2c1 (Ac-NSRK(Ac)-{AMC}) | 0.36 | 0.28 | 0.23 | 1.02 | 0.24 | 0.52 | 0.44 | 0.38 | 0.49 | 0.23 | 0.32 | 0.27 | 0.41 | 1.21 | 0.34 | 0.44 | 0.67 | 0.37
